Paper PMC8071534, “Discovery of Potential, Dual-Active Histamine H3 Receptor Ligands with Combined Antioxidant Properties” (Molecules, 2021)
Several values for one entry are separate records, joined by “and”; a condition that tells them apart may be missing. Identical values can stand only once. Like-named read-outs stand apart in the source and are kept apart here.

Experiments:
[1] = target: T1, human recombinant histamine H3R stably expressed in HEK-293 cells (Homo sapiens, UniProt Q9Y5N1); parameters: method as in PMID 21237145, PMID 29960729; conditions: radioligand of the binding assay; read-out: KD of the radioligand at hH3R; cited from earlier work
T1 construct: HEK-293 cells stably expressing the recombinant full length hH3R; expressed in transfected cells; crude membrane preparations

[2] = target: rH3R; conditions: Figure 1; cited from earlier work
[3] = target: T1, human recombinant histamine H3R stably expressed in HEK-293 cells; test: [3H]Nα-methylhistamine hH3R displacement (radioligand depletion) binding assay; conditions: mean [95% confidence interval]
Description: Unbound radioligand was removed by three washing steps with ice-cold water.

[4] = DPPH free radical scavenging assay; conditions: for DPPH Assay (λ = 517 nm) Absorbance Decrease in 10^−4 mol/L Concentration [%] Mean ± SEM: 30 min incubation, vs solvent + reaction mixture blank
Description: (§1) In order to determine the possible antioxidant properties, selected compounds were tested in 2,2-diphenyl-1-picrylhydrazyl (DPPH) and ferric reducing antioxidant power (FRAP) assay with ascorbic acid as a reference compound (Table 2). For details, please refer to the Materials and Methods Section. Graphical representation of tests results can be found in Supplementary Material.
(§2) Antioxidant properties of compounds were tested in vitro in two different assays: the 2,2-diphenyl-1-picrylhydrazyl (DPPH) assay and the FeCl3 reduction activity assay (FRAP, ferric reducing antioxidant power). The tested compounds and ascorbic acid were dissolved in DMSO at the 10^−2 mol/L concentration, and in ethanol at the concentration of 10^−4 mol/L respectively. Moreover, 30% and 50% ascorbic acid activity cut-off for DPPH and FRAP assays respectively were set ad hoc.
DPPH is a molecule containing a stable free radical. The reduction of DPPH (purple) in ethanol solution takes place in the presence of a hydrogen-donating antioxidant due to the formation of the non-radical form of DPPH-H (yellow). This transformation results in color change from purple to yellow, which can be measured spectrophotometrically. Thus, the decrease in absorbance is proportional to the decrease in concentration of DPPH (free radical) and discoloration of reaction mixture indicates the scavenging of free radicals by a tested antioxidant.
In order to determine antioxidant capacity, 20 μL of the compound solutions (dissolved in 96% ethanol) was mixed with 180 μL of 0.3 mM ethanolic DPPH solution. The change in the absorbance was detected at 517 nm after 30 min of incubation. Results were expressed as percentage decrease in absorbance of the tested sample, compared to the sample containing the solvent + reaction mixture (blank with maximum concentration of the DPPH radical). L-ascorbic acid was used as a reference compound. Calculations were made using MS Excel, from the proportion where the change of absorbance in the vitamin C (vit. C) group was treated as 100%, according to Equation (1):(1) % activity of Vit.C=ΔAb×100/ΔAVit. C
Calculation of % Vit. C activity: ΔAb -the change in the absorbance of the test sample and ΔAVit. C is change in the absorbance of reference sample, or with vit. C.

[5] = FRAP (ferric reducing antioxidant power) assay; conditions: 10 min incubation, vs sample containing solvent
Description: as §1, §2
A modified method of Benzie and Strain [38] was adopted for the FRAP assay. The stock solutions included 300 mM acetate buffer (3.1 g of C2H3NaO2 × 3H2O and 16 mL of C2H4O2), pH 3.6, 10 mM TPTZ (2,4,6-tripyridyl-s-triazine) solution in 40 mM HCl, and 20 mM FeCl3 × 6H2O solution. The working solution was prepared by mixing 10 parts of acetate buffer, 1 part of TPTZ solution, and 1 part of FeCl3 × 6H2O solution. A portion of 180 μL of the FRAP solution was mixed with 20 μL of the tested compound solution and incubated at room temperature for 10 min in the dark. Readings of the color product (ferrous tripyridyl triazine complex) were then taken at 593 nm against ethanol. Results are expressed as an increase in absorbance of the test sample compared to a sample containing the solvent. L-ascorbic acid was used as reference compound.

[6] = target: hH3R; conditions: reference ligands, Figure 1; cited from earlier work
[7] = target: hσ1R; conditions: Figure 1; cited from earlier work
[8] = target: rσ2R; conditions: Figure 1; cited from earlier work
[9] = target: rVAChT; conditions: Figure 1; cited from earlier work
[10] = system: hBuChE; conditions: Figure 1; cited from earlier work
[11] = hH3R Ki [nM] x¯ [CI 95%], [3H]Nα-methylhistamine displacement, HEK-293 membranes
[12] = [3H]Nα-methylhistamine displacement, HEK-293 membranes, read-out: hH3R Ki [nM] x¯ [CI 95%]
[13] = hH3R Ki [nM] x¯ [CI 95%], values obtained using 0.025% HCl in binding buffer

T1 sequence (Q9Y5N1 whole entry): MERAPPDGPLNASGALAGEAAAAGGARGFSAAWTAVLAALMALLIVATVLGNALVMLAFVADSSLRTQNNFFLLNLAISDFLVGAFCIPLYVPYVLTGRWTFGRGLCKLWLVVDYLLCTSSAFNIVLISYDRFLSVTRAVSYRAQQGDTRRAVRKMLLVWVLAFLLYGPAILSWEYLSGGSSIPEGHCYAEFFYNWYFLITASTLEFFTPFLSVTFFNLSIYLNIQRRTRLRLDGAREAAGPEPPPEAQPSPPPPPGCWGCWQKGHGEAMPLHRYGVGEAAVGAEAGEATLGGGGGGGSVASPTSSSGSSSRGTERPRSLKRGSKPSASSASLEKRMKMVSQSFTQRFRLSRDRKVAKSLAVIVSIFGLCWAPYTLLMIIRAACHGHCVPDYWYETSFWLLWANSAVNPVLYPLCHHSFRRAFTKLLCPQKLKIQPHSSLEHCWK

For `CNCCc1cnc[nH]1` [[^3H]N^α-methylhistamine], the Kd [1] is given as 3.08 nM.
For `Clc1ccc(CCCOCCCN2CCCCC2)cc1` [Pitolisant, pitolisant], the Ki [2] is listed as 17 nM.
In the case of `O=C(O)C(=O)O.O=C(c1ccc(Cl)cc1)c1ccc(OCCCN2CCN(C(=O)C3CC3)CC2)cc1` [Compound 8, (4-(3-(4-(4-Chlorobenzoyl)phenoxy)propyl)piperazin-1-yl)(cyclopropyl)methanone hydrogen oxalate], the Ki [3, 11] is reported as greater than 1000 nM, the “DPPH Assay (λ = 517 nm) Absorbance Decrease in 10^−4 mol/L Concentration [%] Mean ± SEM” value [4] is reported as 6.79 ± 0.51% and the “FRAP Assay (λ = 593 nm) Absorbance Increase in 10^−4 mol/L Concentration [%] Mean ± SEM” value [5] is reported as 0.48 ± 0.48%. It also gave a melting point of 176.9 to 179.2 °C.
In the case of `CC(=O)c1ccc(N2CCN(CCCOc3ccc(C(=O)c4ccc(F)cc4)cc3)CC2)cc1` [Compound 12, 1-(4-(4-(3-(4-(4-Fluorobenzoyl)phenoxy)propyl)piperazin-1-yl)phenyl)ethan-1-one], the Ki [3, 12] is reported as 1010 nM, the “DPPH Assay (λ = 517 nm) Absorbance Decrease in 10^−4 mol/L Concentration [%] Mean ± SEM” value [4] is reported as 4.42 ± 0.33% and the “FRAP Assay (λ = 593 nm) Absorbance Increase in 10^−4 mol/L Concentration [%] Mean ± SEM” value [5] is reported as 2.70 ± 1.15%. The melting point was 162 to 163.6 °C.
In the case of `O=C(c1ccc(Cl)cc1)c1ccc(OCCCN2CCN(c3ccc([N+](=O)[O-])cc3)CC2)cc1` [Compound 14, (4-Chlorophenyl)(4-(3-(4-(4-nitrophenyl)piperazin-1-yl)propoxy)phenyl)methanone], the Ki [3, 12] is reported as 622 nM, the “DPPH Assay (λ = 517 nm) Absorbance Decrease in 10^−4 mol/L Concentration [%] Mean ± SEM” value [4] is reported as 6.31 ± 1.14% and the “FRAP Assay (λ = 593 nm) Absorbance Increase in 10^−4 mol/L Concentration [%] Mean ± SEM” value [5] is reported as 0.22 ± 0.16%. It also gave a melting point of 154.5 to 155.8 °C.
Work on `O=C(c1ccccc1)c1ccc(OCCCN2CCN(c3ccc([N+](=O)[O-])cc3)CC2)cc1` [Compound 13, (4-(3-(4-(4-Nitrophenyl)piperazin-1-yl)propoxy)phenyl)(phenyl)methanone] yielded a Ki [3, 12] greater than 1000 nM and a melting point of 182.3 to 183.9 °C.
With `COc1cccc(N2CCN(CCCOc3ccc(C(=O)c4ccccc4)cc3)CC2)c1.O=C(O)C(=O)O` [Compound 16, (4-(3-(4-(3-Methoxyphenyl)piperazin-1-yl)propoxy)phenyl)(phenyl)methanone hydrogen oxalate] the Ki [3, 13] was 592 nM, the “DPPH Assay (λ = 517 nm) Absorbance Decrease in 10^−4 mol/L Concentration [%] Mean ± SEM” value [4] was 12.37 ± 1.31% and the “DPPH assay: % of ascorbic acid activity” value ([4]; compound 10^−4 mol/L vs ascorbic acid 10^−4 mol/L, calculated from Table 2) was 60.28% and 50–60%. The “FRAP Assay (λ = 593 nm) Absorbance Increase in 10^−4 mol/L Concentration [%] Mean ± SEM” value [5] was 32.91 ± 0.81% and the melting point was 143.6 to 146.1 °C.
For `Cn1nc(N2CCC(OC(=O)N3CCN(C4CCC4)CC3)CC2)ccc1=O` [LML134], the Ki [6] is given as 12 nM.
`O=C(c1ccc(F)cc1)c1ccc(OCCCN2CCN(c3ccc([N+](=O)[O-])cc3)CC2)cc1` [Compound 15, (4-Fluorophenyl)(4-(3-(4-(4-nitrophenyl)piperazin-1-yl)propoxy)phenyl)methanone] gave a Ki [3, 12] of 580 nM and a melting point of 173.3 to 174.2 °C.
For `C#CCN(C)Cc1cc2cc(OCCCN3CCCCC3)ccc2n1C` [Contilisant], the Ki [6] is given as 10.8 nM, the Ki [7] is given as 65.2 nM and the Ki [8] is given as 326 nM. For the same compound, the Ki [9] was 46.3 nM and the IC50 [10] was 1690 nM.
In the case of `CC(=O)N1CCN(CCCOc2ccc(C(=O)c3ccc(Cl)cc3)cc2)CC1` [Compound 5, 1-(4-(3-(4-(4-Chlorobenzoyl)phenoxy)propyl)piperazin-1-yl)ethan-1-one], the Ki [3, 12] is reported as 1260 nM.
With `O=C1O[C@H]([C@@H](O)CO)C(O)=C1O` [Ascorbic acid, L-ascorbic acid, reference compound] the “DPPH Assay (λ = 517 nm) Absorbance Decrease in 10^−4 mol/L Concentration [%] Mean ± SEM” value [4] was 20.52 ± 0.51% and the “FRAP Assay (λ = 593 nm) Absorbance Increase in 10^−4 mol/L Concentration [%] Mean ± SEM” value [5] was 344.20 ± 4.65%.
With `COc1cccc(N2CCN(CCCOc3ccc(C(=O)c4ccc(F)cc4)cc3)CC2)c1.O=C(O)C(=O)O` [Compound 18, (4-Fluorophenyl)(4-(3-(4-(3-methoxyphenyl)piperazin-1-yl)propoxy)phenyl)methanone hydrogen oxalate] the Ki [3, 11] was 715 nM, the “DPPH Assay (λ = 517 nm) Absorbance Decrease in 10^−4 mol/L Concentration [%] Mean ± SEM” value [4] was 6.35 ± 0.55% and the “FRAP Assay (λ = 593 nm) Absorbance Increase in 10^−4 mol/L Concentration [%] Mean ± SEM” value [5] was 29.73 ± 0.39%. For the same compound, the melting point was 127.4 to 129.7 °C.
For `CC(=O)c1ccc(N2CCN(CCCOc3ccc(C(=O)c4ccccc4)cc3)CC2)cc1` [Compound 10, 1-(4-(4-(3-(4-Benzoylphenoxy)propyl)piperazin-1-yl)phenyl)ethan-1-one], the Ki [3, 12] was 633 nM, the “DPPH Assay (λ = 517 nm) Absorbance Decrease in 10^−4 mol/L Concentration [%] Mean ± SEM” value [4] was 2.44 ± 0.97% and the “FRAP Assay (λ = 593 nm) Absorbance Increase in 10^−4 mol/L Concentration [%] Mean ± SEM” value [5] was 3.66 ± 0.59%. The melting point was 148.4 to 151.4 °C.
In the case of `COc1cccc(N2CCN(CCCOc3ccc(C(=O)c4ccc(Cl)cc4)cc3)CC2)c1.O=C(O)C(=O)O` [Compound 17, (4-Chlorophenyl)(4-(3-(4-(3-methoxyphenyl)piperazin-1-yl)propoxy)phenyl)methanone hydrogen oxalate], the Ki [3, 13] is reported as 518 nM and ~500 nM, the “DPPH Assay (λ = 517 nm) Absorbance Decrease in 10^−4 mol/L Concentration [%] Mean ± SEM” value [4] is reported as 4.88 ± 0.18% and the “FRAP Assay (λ = 593 nm) Absorbance Increase in 10^−4 mol/L Concentration [%] Mean ± SEM” value [5] is reported as 40.86 ± 0.98%. For the same compound, the melting point was 100.2 to 102.4 °C.
With `CC(=O)N1CCN(CCCOc2ccc(C(=O)c3ccc(F)cc3)cc2)CC1.O=C(O)C(=O)O` [Compound 6, 1-(4-(3-(4-(4-Fluorobenzoyl)phenoxy)propyl)piperazin-1-yl)ethan-1-one hydrogen oxalate] the Ki [3, 11] was 1100 nM, the “DPPH Assay (λ = 517 nm) Absorbance Decrease in 10^−4 mol/L Concentration [%] Mean ± SEM” value [4] was 8.82 ± 0.12% and the “FRAP Assay (λ = 593 nm) Absorbance Increase in 10^−4 mol/L Concentration [%] Mean ± SEM” value [5] was 0.79 ± 0.39%. It also gave a melting point of 171.3 to 173.1 °C.
For `O=C(O)C(=O)O.O=C(c1ccccc1)c1ccc(OCCCN2CCN(C(=O)C3CC3)CC2)cc1` [Compound 7, (4-(3-(4-Benzoylphenoxy)propyl)piperazin-1-yl)(cyclopropyl)methanone hydrogen oxalate], the Ki [3, 11] was 1330 nM, the “DPPH Assay (λ = 517 nm) Absorbance Decrease in 10^−4 mol/L Concentration [%] Mean ± SEM” value [4] was 6.23 ± 0.53% and the “FRAP Assay (λ = 593 nm) Absorbance Increase in 10^−4 mol/L Concentration [%] Mean ± SEM” value [5] was 1.43 ± 0.32%. The melting point was 167.3 to 168.6 °C.
With `CC(=O)N1CCN(CCCOc2ccc(C(=O)c3ccccc3)cc2)CC1.O=C(O)C(=O)O` [Compound 4, 1-(4-(3-(4-Benzoylphenoxy)propyl)piperazin-1-yl)ethan-1-one hydrogen oxalate] the Ki [3, 11] was 3650 nM and the melting point was 136.8 to 140 °C.
In the case of `CC(=O)c1ccc(N2CCN(CCCOc3ccc(C(=O)c4ccc(Cl)cc4)cc3)CC2)cc1` [Compound 11, 1-(4-(4-(3-(4-(4-Chlorobenzoyl)phenoxy)propyl)piperazin-1-yl)phenyl)ethan-1-one], the Ki [3, 12] is reported as greater than 1000 nM, the “DPPH Assay (λ = 517 nm) Absorbance Decrease in 10^−4 mol/L Concentration [%] Mean ± SEM” value [4] is reported as 3.33 ± 0.45% and the “FRAP Assay (λ = 593 nm) Absorbance Increase in 10^−4 mol/L Concentration [%] Mean ± SEM” value [5] is reported as 3.34 ± 0.22%. It also gave a melting point of 180.6 to 183.4 °C.
With `O=C(O)C(=O)O.O=C(c1ccc(F)cc1)c1ccc(OCCCN2CCN(C(=O)C3CC3)CC2)cc1` [Compound 9, (4-(3-(4-(Cyclopropanecarbonyl)piperazin-1-yl)propoxy)phenyl)(4-fluorophenyl)methanone hydrogen oxalate] the Ki [3, 11] was 1670 nM, the “DPPH Assay (λ = 517 nm) Absorbance Decrease in 10^−4 mol/L Concentration [%] Mean ± SEM” value [4] was 7.70 ± 0.41% and the “FRAP Assay (λ = 593 nm) Absorbance Increase in 10^−4 mol/L Concentration [%] Mean ± SEM” value [5] was 1.75 ± 0.22%. It also gave a melting point of 181.1 to 182.7 °C.
